Assay results as given in ChEMBL document CHEMBL3885881, “DrugMatrix”.

Species on record: Rattus norvegicus
Assay: DrugMatrix - Regimen: Daily Repeat
Assay type: toxicity, organism-based, Sprague-Dawley
Parameters: regimen Daily Repeat, gender Male, age 6-8 weeks
Conditions: in vivo, po, 16 mg/kg, route oral GAVAGE, dose level Low, […]; for ABSOLUTE BASOPHIL / ABSOLUTE EOSINOPHIL / ABSOLUTE LYMPHOCYTE / ABSOLUTE MONOCYTE / ABSOLUTE SEGMENTED NEUTROPHIL / BASOPHIL / EOSINOPHIL / ERYTHROCYTE COUNT / HEMATOCRIT / HEMOGLOBIN / LEUKOCYTE COUNT / LYMPHOCYTE / MEAN CORPUSCULAR HEMOGLOBIN / MEAN CORPUSCULAR HEMOGLOBIN CONCENTRATION / MEAN CORPUSCULAR VOLUME / MONOCYTE / NEUTROPHIL / NUCLEATED RED BLOOD CELLS / PLATELET COUNT: tissue Blood; for ALANINE AMINOTRANSFERASE / ALBUMIN / ALKALINE PHOSPHATASE / ASPARTATE AMINOTRANSFERASE / BLOOD UREA NITROGEN / CARBON DIOXIDE / CHLORIDE / CHOLESTEROL / CREATINE PHOSPHOKINASE / CREATININE / GLUCOSE / LACTATE DEHYDROGENASE / LIPASE / PHOSPHORUS / POTASSIUM / SODIUM / TOTAL BILIRUBIN / TOTAL PROTEIN / URIC ACID: tissue Plasma

O=C(O)c1cc(-c2ccc(F)cc2F)ccc1O [DIFLUNISAL]
ABSOLUTE BASOPHIL (72 h, time 3 day): 0 CELLS/uL | ABSOLUTE EOSINOPHIL (72 h, time 3 day): 52.33 CELLS/uL | ABSOLUTE LYMPHOCYTE (72 h, time 3 day): 12636.67 CELLS/uL | ABSOLUTE MONOCYTE (72 h, time 3 day): 104.67 CELLS/uL | ABSOLUTE SEGMENTED NEUTROPHIL (72 h, time 3 day): 1073 CELLS/uL | BASOPHIL (72 h, time 3 day): 0% | EOSINOPHIL (72 h, time 3 day): 0.33% | ERYTHROCYTE COUNT (72 h, time 3 day): 5.44 x10E6/uL | HEMATOCRIT (72 h, time 3 day): 33.4% | HEMOGLOBIN (72 h, time 3 day): 13.27 G/DL | LEUKOCYTE COUNT (72 h, time 3 day): 13.87 x10E3/uL | LYMPHOCYTE (72 h, time 3 day): 91.33% | MEAN CORPUSCULAR HEMOGLOBIN (72 h, time 3 day): 24.4 pg | MEAN CORPUSCULAR HEMOGLOBIN CONCENTRATION (72 h, time 3 day): 39.73 G/DL | MEAN CORPUSCULAR VOLUME (72 h, time 3 day): 61.47 fL | MONOCYTE (72 h, time 3 day): 0.67% | NEUTROPHIL (72 h, time 3 day): 7.67% | NUCLEATED RED BLOOD CELLS (72 h, time 3 day): 0 /100WBC | PLATELET COUNT (72 h, time 3 day): 1096.67 x10E3/uL | ALANINE AMINOTRANSFERASE (72 h, time 3 day): 65.33 u/L | ALBUMIN (72 h, time 3 day): 3.77 G/DL | ALKALINE PHOSPHATASE (72 h, time 3 day): 396.67 u/L | ASPARTATE AMINOTRANSFERASE (72 h, time 3 day): 93.33 u/L | BLOOD UREA NITROGEN (72 h, time 3 day): 10.67 mg/dL | CARBON DIOXIDE (72 h, time 3 day): 29.67 mmol/L | CHLORIDE (72 h, time 3 day): 100 MEQ/L | CHOLESTEROL (72 h, time 3 day): 80.67 mg/dL | CREATINE PHOSPHOKINASE (72 h, time 3 day): 405 u/L | CREATININE (72 h, time 3 day): 0.14 mg/dL | GLUCOSE (72 h, time 3 day): 166.67 mg/dL | LACTATE DEHYDROGENASE (72 h, time 3 day): 130 u/L | LIPASE (72 h, time 3 day): 11.33 u/L | PHOSPHORUS (72 h, time 3 day): 11.43 mg/dL | POTASSIUM (72 h, time 3 day): 6.17 MEQ/L | SODIUM (72 h, time 3 day): 141.97 MEQ/L | TOTAL BILIRUBIN (72 h, time 3 day): 0.13 mg/dL | TOTAL PROTEIN (72 h, time 3 day): 5.47 G/DL | URIC ACID (72 h, time 3 day): 1.53 mg/dL | ABSOLUTE BASOPHIL (120 h, time 5 day): 0 CELLS/uL | ABSOLUTE EOSINOPHIL (120 h, time 5 day): 84.67 CELLS/uL | ABSOLUTE LYMPHOCYTE (120 h, time 5 day): 10265 CELLS/uL | ABSOLUTE MONOCYTE (120 h, time 5 day): 157.67 CELLS/uL | ABSOLUTE SEGMENTED NEUTROPHIL (120 h, time 5 day): 1026 CELLS/uL | BASOPHIL (120 h, time 5 day): 0% | EOSINOPHIL (120 h, time 5 day): 0.67% | ERYTHROCYTE COUNT (120 h, time 5 day): 5.28 x10E6/uL | HEMATOCRIT (120 h, time 5 day): 33.5% | HEMOGLOBIN (120 h, time 5 day): 13.6 G/DL | LEUKOCYTE COUNT (120 h, time 5 day): 11.53 x10E3/uL | LYMPHOCYTE (120 h, time 5 day): 89% | MEAN CORPUSCULAR HEMOGLOBIN (120 h, time 5 day): 25.73 pg | MEAN CORPUSCULAR HEMOGLOBIN CONCENTRATION (120 h, time 5 day): 40.63 G/DL | MEAN CORPUSCULAR VOLUME (120 h, time 5 day): 63.37 fL | MONOCYTE (120 h, time 5 day): 1.33% | NEUTROPHIL (120 h, time 5 day): 9% | NUCLEATED RED BLOOD CELLS (120 h, time 5 day): 0.33 /100WBC | PLATELET COUNT (120 h, time 5 day): 1107.33 x10E3/uL | ALANINE AMINOTRANSFERASE (120 h, time 5 day): 56 u/L | ALBUMIN (120 h, time 5 day): 4.13 G/DL | ALKALINE PHOSPHATASE (120 h, time 5 day): 404.33 u/L | ASPARTATE AMINOTRANSFERASE (120 h, time 5 day): 84.33 u/L | BLOOD UREA NITROGEN (120 h, time 5 day): 16 mg/dL | CARBON DIOXIDE (120 h, time 5 day): 25.33 mmol/L | CHLORIDE (120 h, time 5 day): 102.33 MEQ/L | CHOLESTEROL (120 h, time 5 day): 68.67 mg/dL | CREATINE PHOSPHOKINASE (120 h, time 5 day): 379.67 u/L | CREATININE (120 h, time 5 day): 0.23 mg/dL | GLUCOSE (120 h, time 5 day): 159.33 mg/dL | LACTATE DEHYDROGENASE (120 h, time 5 day): 227 u/L | LIPASE (120 h, time 5 day): 11.67 u/L | PHOSPHORUS (120 h, time 5 day): 11.33 mg/dL | POTASSIUM (120 h, time 5 day): 6.39 MEQ/L | SODIUM (120 h, time 5 day): 143.53 MEQ/L | TOTAL BILIRUBIN (120 h, time 5 day): 0.17 mg/dL | TOTAL PROTEIN (120 h, time 5 day): 5.47 G/DL | URIC ACID (120 h, time 5 day): 1.67 mg/dL
